Legend:
Format in all cases: cell-based
[1] = test system: primary human dermal fibroblasts (HDFs); experiment: Mitophagy assay, mt-mKeima reporter, fluorescence microscopy
Description: Primary human dermal fibroblasts (HDFs) were cultured in DMEM supplemented with 10 percent FBS, 100 units per milliliter penicillin/streptomycin, and 2 millimolar L-glutamine in a humidified atmosphere containing 5 percent carbon dioxide at 37 degrees Celsius. Stable expression of mt-mKeima was achieved through retroviral transduction (Kelly et al.). Cells stably expressing mt-mKeima were seeded in a 35 mm glass bottom dish (MatTek). The live-cell mt-Keima signal was obtained via widefield microscopy using the DMi8 and 2 filtersets to obtain the acidic (561 nm excitation, “red”) and pH-neutral (480 nm, “green”) mKeima signals. Using FIJI/ImageJ, a macro was applied to the mt-mKeima signal to extract mitolysosomes. In detail, images were masked by applying MaxEntropy threshold to the images obtained with 561 nm excitation to remove low mt-mKeima red signal and background. Then, images were generated by subtracting the signal of green mKeima from that of red mKeima. Resulting images were binarised with the MaxEntropy threshold algorithm to extract mitolysosomes. Mitophagy events were determined as the number of puncta per cell. Cells stably expressing pSu9-Halo-GFP seeded in a 35 glass bottom dish (MatTek) were stained with 1 μM Halo TMR ligand (Promega, G8251) for 48 h. Fluorescence images were obtained using an LSM700 confocal microscope (Zeiss). The number of mitolysosomes (GFP-Halo+puncta) per cell was quantified using proprietary plugin in Fiji/ImageJ. Both mKeima and pSu9-Halo-GFP reporters directly visualize frequency of mitophagy events (e.g., mitochondria delivered by autophagolysosomes to lysosomes for degradation) (Kelly et al.).

[2] = test system: human dermal fibroblasts (HDFs); experiment: Cell motility assay; conditions: HDFs from aged donors; 30 μM, 7 h
Description: HDFs were seeded in glass bottomed multiwell plates (Greiner, 662892), 24 h prior to imaging. Images were captured using a Zeiss CellDiscoverer 7 with a 5x/0.35NA lens with a 2× optovar using oblique mode brightfield with a Hamamatsu Fusion camera every 300 seconds for 5 h (1 ms exposure time), capturing 2 random fields per well. Cells were maintained at 37° C., 5% CO2 throughout experiments. 6 cells were analysed per field using the Manual Tracking plugin in FIJI/ImageJ, and shown as mean movement per cell recorded.

[3] = test system: human dermal fibroblasts (HDFs); experiment: Seahorse analysis, ATP production normalized to MitoTracker density; conditions: HDFs from aged donors; 30 μM, 7 h
Description: The Seahorse XF Cell Mito Stress Test Kit (Agilent) was used to measure oxygen consumption rates in adult dermal fibroblasts. One day prior to the assay cells were seeded at either 4000 per well or 3000 per well. Where indicated, fibroblast plates were subjected to 20Gy IR 2 h before assay. STOCKIN ([…]) or vehicle (DMSO) treatments were performed 7 h before Seahorse assays. HDFs were stained with 100 nM Mitotracker Green for mitochondrial density measurement. The Mito Stress Test was performed as per manufacturer's guidelines on a Seahorse XF96 Extracellular Flux analyser using previously optimized conditions. Following assay completion, cells were fixed in 4% PFA for 20 minutes. PFA was then removed, and cells were washed twice with PBS. Following fixation, cells were stained with Hoescht nucleic acid stain (Invitrogen) for 10 min before being washed twice in PBS. Fluorescence was subsequently measured using the PHERAstar FSX plate reader (BMG LABTECH) at 350/460 nm for normalization purposes. Following normalization, OCR measurements were interpreted from data generated from the Agilent Seahorse Wave software version 2.6.3.5. Basal respiration data in unstressed conditions is presented. OCR measurements were further normalised to mitochondrial density to obtain ATP production (pmol/min/mitochondria).

## CC(=O)Oc1ccc(N2C(=O)C3C(Cc4ccccc4)NC4(C(=O)Nc5c4ccc(Cl)c5C)C3C2=O)cc1 (centres unmarked) [STOCKIN-57543]
[1]; HDFs from aged donors, 30 μM, 7 h
  functional mitophagy (mitophagy events): restoring functional mitophagy
[1]; HDFs with p62 knockdown
  rescue of suppressed basal mitophagy in the absence of p62: unable to rescue the suppression of basal mitophagy
[1]; HDFs, 30 μM for 5 h prior to 20 Gy IR
  IR-associated decrease in mitophagy: preventing IR-associated decrease in mitophagy
[2]
  cell motility: improving cell motility
[3]
  mitochondrial function (ATP production per cell normalized to MitoTracker density): restoring

Reference: US20250381110A1, “SKIN CARE COMPOSITION AND METHOD OF USING THE SAME” (THE PROCTER & GAMBLE COMPANY, priority 2024, published 2025)
